Source: ChEMBL document CHEMBL3507680, “University of Dundee, Gates Library screen for HepG2 cell viability”
“And” between values parts separate entries of the source, which are not always exact repeats. Identical values can stand only once.

Experiment: Human HepG2 cell viability assay in 384 well format
Type: toxicity, cell-based
Set-up: dose 125 nL, time 70.5 hour; cytotoxicity at 70.5 h: concentration not given beside the values
Settings: HepG2 cells, read-out: Inhibition

| SMILES | cytotoxicity at 70.5 h [%] |
| --- | --- |
| O=C(c1cccnc1)N1C[C@@H]2OCC(=O)N(Cc3cccnc3)[C@@H]2C1 | -3.03 |
| Cc1ccc(CN2CCOCC3(CCN(Cc4cccs4)C3)C2)o1 (configuration not stated) | 0.0959 |
| CCCn1nc2c(cc1=O)CN(CCCS(N)(=O)=O)CC2 | 3.74 |
| Cc1cnn(C2CCCN(C(=O)c3ccc4c(c3)CCC4)C2)c1 (configuration not stated) | -6.05 |
| CCc1cc(CN(C)C(=O)CN2CC(Cc3ccccc3)CC2=O)on1 (configuration not stated) | 2.31 |
| CN(Cc1cccs1)c1nc2c(cnn2C(C)(C)C)c(=O)[nH]1 | -6.5 |
| CC(Cc1c(F)cccc1F)NC(=O)CSCC(N)=O (configuration not stated) | 12.1 |
| Cc1cc(C2CCCN(C(=O)c3c(C)nn4cccnc34)C2)n[nH]1 (configuration not stated) | -3.82 |
| O=C(CN1CCN(CC(O)C2CC2)CC1)NCc1ccccc1Cl (configuration not stated) | -10.5 |
| CC(C)N(Cc1ccc(C(F)(F)F)nc1)Cc1cnn(C)c1 | -6.85 |
| Cc1nc(CN2CCc3cncnc3C2)oc1C | -5.69 |
| COCCCN1Cc2cccc(NC(=O)c3ccccc3C)c2C1 | 15.2 |
| CCCc1cc(C(=O)N2CCC3(CCCN(CCOC)C3=O)C2)cs1 (configuration not stated) | -7.15 |
| Cc1nn(C)c2cnn(C(C)C(=O)NCc3cccnc3)c12 (configuration not stated) | -5.87 |
| CCCc1nc(N[C@H]2COC[C@@H]2N2CCCC2)c2cnn(C)c2n1 | -7.83 |
| Cc1oc(-c2nc(C#N)c(NC(C)(C)C)o2)cc1S(=O)(=O)N1CCCC1 | -8.41 |
| CNS(=O)(=O)c1ccc(CN2CCN(Cc3ncccc3C)CC2)cc1 | -15.3 |
| CC(Nc1ncnc2c1CCNC2)c1ccc2c(c1)CCCC2 (configuration not stated) | -2.47 |
| CCn1ncc2c(C(F)(F)F)cc(-c3ccn(C)n3)nc21 | -8.47 |
| O=C(NCC1CC1)C1=NOC2(CCN(S(=O)(=O)c3ccc(F)cc3)C2)C1 (configuration not stated) | -0.024 |
| Cc1nc2c(c(C)c1CC(=O)NCc1cccs1)c(=O)[nH]n2C | -1.43 |
| Cc1nn(CCNC(C)Cn2ccnc2)c(C)c1Cl (configuration not stated) | -1.29 |
| Cc1noc(C)c1CN1C[C@@H]2C[C@@H](C)O[C@@H]2C1 | -3.08 |

| SMILES | cytotoxicity at 70.5 h [%] |
| --- | --- |
| Cc1nc(NC(=O)N(C)Cc2ccsc2)nn1C | -7.49 |
| CNC(=O)c1nc(CN2CCOC(C(F)(F)F)C2)no1 (configuration not stated) | 28.6 |
| CC(=O)N[C@@H]1CN(Cc2ccccc2C#N)C[C@H]1c1ccc(C)cc1 | -21.6 |
| CCn1nc(C)cc1C(=O)N1C[C@@H]2C[C@@H](C)O[C@@H]2C1 | -7.68 |
| O=C([C@@H]1COC[C@H]2CN(C3CCCC3)C[C@H]21)N1CCC(F)CC1 | -1.78 |
| CSCCCNC(=O)C(c1cccc(F)c1)N(C)C (configuration not stated) | -4.98 |
| Cc1cc2ccccc2n1CCC(=O)N1CCN(C)CC1C(N)=O (configuration not stated) | -2.15 |
| O=C(CCc1ccsc1)N1CCCC(n2cncn2)C1 (configuration not stated) | -11.8 |
| COC(=O)c1sccc1CN1CCN(C(=O)c2ccc(C)o2)CC1 | -8.65 |
| CN(Cc1nnc(-c2cccs2)o1)Cc1nc2c(s1)CCCC2 | -14.1 |
| CC(C)(N)c1cn(C2CCN(c3ncccc3Cl)CC2)nn1 | -9.17 |
| CC(NC(=O)NCCCn1cncn1)c1ccc(C(F)(F)F)cc1 (configuration not stated) | -7.5 |
| Cc1noc(CN(C)CC2CCN(CCO)CC2)n1 | 5 |
| CC(C)COc1cncc(N2CCCC(CC(N)=O)C2)n1 (configuration not stated) | -1.79 |
| Cc1ccc(-n2cc(C(=O)NCC(C)Cn3cccn3)nn2)cc1 (configuration not stated) | -14.5 |
| CC(=O)N1CCN(c2ccccc2CNc2ccc(C)cn2)CC1 | -3.33 |
| CC(C)Cc1noc(CN2CCN(c3nccs3)CC2)n1 | -3.87 |
| COCC(NC(=O)c1ccco1)c1cccc(C(F)(F)F)c1 (configuration not stated) | -3.48 |
| Cc1ccnc(NCc2cccc(OCCN3CCOCC3)c2)n1 | 32.7 |
| CS(=O)(=O)N1CCC(Oc2ccc(C(=O)N3CCSCC3)cc2Cl)CC1 | 0.994 |
| Cc1cc2n(n1)CC(CNC1CCN(c3ccccn3)CC1)CN2 (configuration not stated) | -0.0737 |
| CSCc1cccc(S(=O)(=O)N2CCC(C)CC2)c1 | 8.82 |
| CC(C)S(=O)(=O)N1CCCC(c2nccn2Cc2cccnc2)C1 (configuration not stated) | -8.01 |

| SMILES | cytotoxicity at 70.5 h [%] |
| --- | --- |
| Cc1cc(C)cc(N2CCN(C(=O)CCN3C[C@@H]4CC[C@H]3C4)CC2=O)c1 | -11.2 |
| Cc1ccc(N2CC[C@@H](NC(=O)c3cnccn3)[C@H](O)C2)nn1 | -7.78 |
| COCCN1CCCC(c2nccnc2-c2cccc(Cl)c2)C1 (configuration not stated) | 21 |
| Cn1nc(CNC(=O)c2ccc(OC(F)(F)F)cc2)c2c1CCOC2 | 2.03 |
| CCN1C[C@@H]2CN(Cc3cccs3)C[C@@H]2C1=O | -10.6 |
| CN(Cc1cccc(F)c1)C(=O)CN1CCOC(Cn2cncn2)C1 (configuration not stated) | -0.78 |
| CCc1nnc2n1CCN(C(=O)c1ccc(C)c(S(N)(=O)=O)c1)C2 | -1.49 |
| Cc1nnc(CN2C[C@H](NC(=O)CC3CCCC3)[C@@H](C3CC3)C2)s1 | -7.74 |
| COCCNC(=O)N1CCN(C(C)C(=O)NC2CCCC2)CC1 (configuration not stated) | -5.61 |
| c1ccc(-c2ncc3c(n2)C2(CCN(CC4CC4)C2)COC3)cc1 (configuration not stated) | 15.2 |
| Cc1ccc(C(=O)N2CCC3(CCCCC3)C2)c(=O)[nH]1 | -105 |
| CCc1cc(N2CCC(NC3CCOCC3)CC2)nc(N(C)C)n1 | 25.7 |
| O=C(CCN1CCc2ccccc21)N1C[C@@H](O)[C@H](N2CCCC2)C1 | -7.06 |
| CC(C)c1nnc(NCc2ccsc2)o1 | 3.33 |
| CN1CCN(Cc2ccccc2CNC(=O)c2ccc(Cl)cc2F)CC1 | 3.69 |
| OCc1cn([C@@H]2c3ccccc3C3(CCNCC3)[C@H]2O)nn1 | -9 |
| CCC(CO)NC(=O)Nc1cc(F)ccc1Br (configuration not stated) | -9.27 |
| CC(=O)N(Cc1noc(C2CC2)n1)C1CCN(Cc2ccncc2)C1 (configuration not stated) | 19.8 |
| O=C(C1CCOCC1)N1CCC2(CC1)CN(c1ccsc1)C(=O)CO2 | -6.23 |
| O=C(CCCNC(=O)Nc1ccc(F)cc1)Nc1cn[nH]c1 | -7.73 |
| CS(=O)(=O)CCCN1CCN(C(C#N)c2ccccc2)CC1 (configuration not stated) | 0.393 |
| O=C(CSc1ccc(F)c(F)c1)NS(=O)(=O)c1ccc2c(c1)OCCO2 | -14 |
| CCn1cc(SCC(=O)N2CCCC(O)(CO)C2)c2ccccc21 (configuration not stated) | -8.91 |

| SMILES | cytotoxicity at 70.5 h [%] |
| --- | --- |
| COc1cc(NCC(c2ccccn2)N(C)C)ncn1 (configuration not stated) | -5.7 |
| Cn1ccnc1CN1CCCN(C(=O)c2ccc3c(c2)OCO3)CC1 | -6.18 |
| CN(CCc1ccncc1)C(=O)C1CSCN1C(=O)C(C)(C)C (configuration not stated) | -8.71 |
| CCCc1noc(CN2CCN(CCC(C)C)CC2)n1 | -2.49 |
| CNS(=O)(=O)c1ccc(C(=O)NCCc2ccccn2)cc1 | -10.7 |
| CN(C)c1ncc(NC(=O)c2ccccc2C(F)(F)F)cn1 | -4.64 |
| Cc1cc(C(=O)N2CCCC(c3nncn3C)C2)no1 (configuration not stated) | -5.95 |
| Cc1ccc(C(=O)NC(CN2CCCC2=O)c2ccccc2)cn1 (configuration not stated) | 2.77 |
| CC(C)OCCN1CCN(C(=O)c2cccc(CC#N)c2)CC1 | -12 |
| Cc1cccc(C)c1OCC(=O)NS(=O)(=O)c1c(C)noc1C | -14.4 |
| COc1ccc(CN2CCCCC2CNC(=O)OC(C)(C)C)cc1F (configuration not stated) | -7.89 |
| O=S(=O)(Cc1ccccc1)NCc1ccnc(O)c1 | 0.635 |
| Cn1cnnc1C1CCCN(C(=O)c2cc(Cl)c(Cl)n2C)C1 (configuration not stated) | -8.15 |
| Cn1cccc1C(=O)NCc1cnc2n1CCN(CC1CC1)C2 | 3.59 |
| O=C(C1CC1)N1CC[C@@H]2[C@H](CC1)N(Cc1cccnc1)CCS2(=O)=O | -2.85 |
| OCCOCCN1CCCC1c1cccc(Cl)c1 (configuration not stated) | -3.17 |
| O=C(COc1ccc(Cl)cc1Cl)N1CCCSCC1CN1CCOCC1 (configuration not stated) | 0.222 |
| CCCC(C#N)NC(=O)COC1CCCCC1 (configuration not stated) | 6.33 |
| Cc1nccc(N2CCC(Cc3cccc(C(=O)O)c3)CC2)n1 | -6.88 |
| Cc1cc(C)c(C(=O)N(C)CCN(C)C(=O)c2[nH]c(C)cc2C)[nH]1 | -6.06 |
| Nc1nccc(N2CCC(c3cc(Cc4ccccc4)n[nH]3)CC2)n1 | 31.5 |
| CCOc1ncccc1NC(=O)C1CCS(=O)(=O)C1 (configuration not stated) | 0.736 |
| COc1cccc(-c2nnn(C3CCN(CC(F)(F)F)C3=O)n2)c1 (configuration not stated) | 0.471 |

| SMILES | cytotoxicity at 70.5 h [%] |
| --- | --- |
| O=C1NCC2(CCCN(C(=O)Nc3cccc(-c4cscn4)c3)CC2)O1 (configuration not stated) | 36 |
| CC(NC(=O)NCCCn1cccn1)c1ccc2c(c1)NC(=O)CO2 (configuration not stated) | 46.4 |
| CCc1ccc(C(=O)NC2CCc3nc(C)cn3C2)o1 (configuration not stated) | -4.82 |
| CN1CC(c2ccccc2)CC12CCN(C(=O)c1ccc(Cl)cn1)CC2 (configuration not stated) | 19.6 |
| CC1c2ncc(COCC3CC3)n2CCN1S(=O)(=O)N(C)C (configuration not stated) | -1.15 |
| Cc1nsc(NC2CCN(c3ccccc3OC(F)F)C2=O)n1 (configuration not stated) | 9.92 |
| O=C(c1ccccc1F)N1CCC2(CC1)CC(Oc1ccccn1)CO2 (configuration not stated) | -4.93 |
| Cc1ccsc1CN1CC[C@H]2O[C@H](C(=O)N3CCCO3)CC[C@H]21 | -8.24 |
| COC(=O)[C@H]1C[C@@H](O)CCN1S(=O)(=O)c1ccc(F)cc1F | 21.8 |
| O[C@H]1COCCN(Cc2cccc3c2OCO3)C1 | -4.2 |
| Cn1cc(-c2nc(CN3CCc4c(ncn4C4CC4)C3)cs2)cn1 | -15.2 |
| Cc1n[nH]c(C2CN(C(=O)c3scnc3C)CCO2)n1 (configuration not stated) | -7.66 |
| COc1ccc(CN2C[C@H]3C[C@H](C(=O)Nc4cccnc4)[C@@H](C2)O3)cc1 | -3.51 |
| CC(C)(C#N)C(=O)Nc1nccn1Cc1ccc(Br)cc1 | 11.2 |
| C1CC1c1nsc(N2CCN(C3CC3)CC2)n1 | 1.41 |
| CCOCCNC(=O)[C@@H]1CCCN1c1nccc(Nc2ccccc2)n1 | -1.64 |
| CC(C)c1noc(C(C)N2CCN(Cc3ccccc3C#N)CC2)n1 (configuration not stated) | 2.84 |
| c1cc(-c2c[nH]nc2C2CCCCC2)nc(N2CCCCCC2)n1 | 2.67 |
| CNC(=O)c1cccc(NC(=O)NCc2ccc(SC)cc2)c1C | -7.01 |

Same assay, conditions: hepg2, 70.5 h, 70.5 h

| SMILES | Inhibition |
| --- | --- |
| CCOC(=O)CC(c1cccc(OC)c1OC)c1c(C)[nH][nH]c1=O (configuration not stated) | -11.36% and -3.674% |
